This is an account of results in patent US12291533B2, “Substituted fused pyrimidine compounds and uses thereof” (Northwestern University, priority 2017, dated 2025).

The structures appear in SMILES notation.

The assay deals with T1, glucocerebrosidase (Homo sapiens, UniProt P04062).
T1 sequence (P04062 40-536): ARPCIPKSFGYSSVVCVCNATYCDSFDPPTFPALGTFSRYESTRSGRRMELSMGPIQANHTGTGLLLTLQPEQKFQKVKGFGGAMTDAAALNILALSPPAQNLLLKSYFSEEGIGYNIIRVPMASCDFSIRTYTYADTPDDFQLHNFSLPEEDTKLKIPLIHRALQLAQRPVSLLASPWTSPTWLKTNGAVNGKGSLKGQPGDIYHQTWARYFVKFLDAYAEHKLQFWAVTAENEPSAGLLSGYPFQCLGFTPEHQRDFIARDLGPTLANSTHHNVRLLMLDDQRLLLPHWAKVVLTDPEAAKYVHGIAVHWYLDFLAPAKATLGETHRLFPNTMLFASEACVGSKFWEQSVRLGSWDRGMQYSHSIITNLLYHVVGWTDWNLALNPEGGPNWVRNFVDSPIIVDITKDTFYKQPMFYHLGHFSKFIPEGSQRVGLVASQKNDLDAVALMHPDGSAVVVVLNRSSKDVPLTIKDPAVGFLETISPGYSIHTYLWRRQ
Description: Glucocerebrosidase activity assay with blue substrate (4MU-Glc). It is filed as biochemical. As to the method: Example 2—Glucocerebrosidase Activity Assay with Blue Substrate
The compounds in DMSO solution 0.5 μL/well were transferred to a black 96-well plate (the final titration was 24 nM to 50 μM, 12 concentrations, 2× dilution). 33.5 μL enzyme solution (7.5 nM final concentration) was transferred to the wells. After 5 min of incubation at room temperature, the enzyme reaction was initiated by the addition of 33 μL/well blue substrate. Final concentration of the blue substrate (4MU-Glc) was 1.5 mM. The blue substrate reaction was terminated by the addition of 33 μL/well stop solution (1 M NaOH and 1 M glycine mixture, pH 10) after 30 min of incubation at 37° C. The fluorescence was then measured in the Biotek Synergy H1 multi-mode plate reader with Ex=365 nm and Em=440 nm.
Additional compounds were synthesized and tested for glucocerebrosidase modulatory activity as described in Example 1 and Example 2.

Setting [1] is: Table 1, 7.5 nM enzyme, 1.5 mM 4MU-Glc, 30 min at 37° C.
[2] abbreviates: Table 1, 7.5 nM enzyme, 1.5 mM 4MU-Glc, 30 min at 37° C., titration 24 nM to 50 μM.
Where [3] appears, read: Table 2, additional compounds, tested as described in Example 2.

As a reminder, the Emax is the size of the effect at its maximum, as opposed to the concentration needed. Usually AC50 stands for the concentration giving half of the maximal activity seen. `CN(CCOc1ccccc1)c1nc(-c2cccnc2)nc2ccccc12` [Compound 13]: under setting [1], the Emax was 750%. Under setting [2], the AC50 worked out at 3.55 µM. Take `Cc1noc(C)c1-c1nc(N(C)CCOc2ccccc2)c2ccccc2n1` [Compound 47]: the maximal effect (Emax) under setting [1] came to 175%. Further, the concentration at half-maximal activity (AC50) under setting [2] is 2.21 µM.

In the case of `CCc1ccc(-c2nc(N(C)CCOc3ccc(C#N)cc3)c3cnn(CC)c3n2)cc1` [Compound 123], under setting [3], the half-maximal activity concentration (AC50) came to 3.16 µM and the Emax came to 105%. On to `CCn1ncc2c(N(C)CCOc3ccccc3)nc(-c3cccnc3)nc21` [Compound 99], for which the maximum response (Emax) under setting [1] amounted to 208%. The AC50 under setting [2] was 0.71 µM. Taken in the same sequence, the figures for `CN(CCOc1ccccc1)c1nc(-c2cncc(Cl)c2)nc2ccccc12` [Compound 32] were 250% and 1.21 µM. For the compound `CN(CCOC1CCCCC1)c1nc(-c2cccnc2)nc2c1cnn2C` [Compound 102], under setting [2], the AC50 is 25.1 µM. Take `CN(Cc1ccc2ccccc2n1)c1nc(-c2cccnc2)nc2c1cnn2C` [Compound 104]: the Emax under setting [1] was determined as 425%. Besides, the AC50 under setting [2] was 6.31 µM.

On to `CN(CCOc1ccccc1)c1cc(N2CCOCC2)nc(-c2cccnc2)n1` [Compound 71], for which the Emax under setting [1] came to 346%. Also, the AC50 under setting [2] turned out to be 15.8 µM. Turning to `CCn1ncc2c(N(C)CCOc3ccc(CNC(=O)CCNC(=O)OC(C)(C)C)cc3)nc(-c3cccnc3)nc21` [Compound 140], under setting [3], the half-maximal activity concentration (AC50) was 2.82 µM and the maximal response (Emax) amounted to 980%.

Take `CN(CCOc1ccccc1)c1nc(-c2cccnc2)nc2c(F)cccc12` [Compound 38]: the Emax under setting [1] is 700%. Further, the AC50 under setting [2] stood at 2.82 µM. As for `CCn1ncc2c(N3CCC[C@H](Oc4ccccc4)C3)nc(-c3cccnc3)nc21` [Compound 163], under setting [3], the AC50 was determined as 25.1 µM and the Emax turned out to be 475%.

`CN(CCOc1ccccc1)c1nc(Nc2ccccc2)nc2ccccc12` [Compound 66]: the Emax under setting [1] is 141%. Under setting [2], the AC50 came out at 7.08 µM. On the same counts, the results for `Cn1ncc2c(NCCOC3CCCCC3)nc(-c3cccnc3)nc21` [Compound 91] are 322% and 44.7 µM. On the same counts, the results for `CCn1ncc2c(N(C)CCOc3ccc(CN)cc3)nc(-c3cccnc3)nc21` [Compound 110] are 750% and 7.94 µM. Taken in the same sequence, the figures for `COC(=O)Cc1cccc(OCCN(C)c2nc(-c3cccnc3)nc3c2cnn3C)c1` [Compound 90] were 908% and 7.94 µM. As to `CCN(CCOc1ccccc1)c1nc(-c2cccnc2)nc2ccccc12` [Compound 14], the Emax under setting [1] is 430%. Under setting [2], the concentration at half-maximal activity (AC50) was found to be 5.01 µM. Regarding `c1ccc(O[C@@H]2CCCN(c3nc(-c4cccnc4)nc4ccccc34)C2)cc1` [Compound 26], under setting [1], the Emax amounted to 225%. The AC50 under setting [2] was found to be 1.78 µM. Consider `COC(=O)c1ccc(OCCN(C)c2nc(-c3cccnc3)nc3ccccc23)cc1` [Compound 76], for which, under setting [1], the Emax is 255%. For the same compound, the half-maximal activity concentration (AC50) under setting [2] was 4.47 µM. For `CN(CCOc1ccccc1)c1nc(-c2cccnc2)nc2ncccc12` [Compound 62], under setting [2], the AC50 is 7.08 µM.

With `CN(CCOc1ccccc1)c1nc(-c2cccnc2)nc2[nH]ccc12` [Compound 63], the Emax under setting [1] came out at 461%. Further, the AC50 under setting [2] was found to be 3.98 µM.

Turning to `CN(CCOc1ccccc1)c1nc(-c2cccnc2)nc2cccc(F)c12` [Compound 41], the Emax under setting [1] amounted to 180%. Moreover, the AC50 under setting [2] was 13.5 µM. Taken in the same sequence, the figures for `CCn1ncc2c(N(C)CCOc3ccc(CNC(=O)CCCCCN)cc3)nc(-c3cccnc3)nc21` [Compound 112] were 530% and 3.55 µM.

Consider `Cc1cc(C)cc(OCCN(C)c2nc(-c3cccnc3)nc3ccccc23)c1` [Compound 27], for which the Emax under setting [1] came out at 225%. Under setting [2], the concentration at half-maximal activity (AC50) was found to be 3.98 µM.

With `CN(Cc1ccc2ncccc2c1)c1nc(-c2cccnc2)nc2c1cnn2C` [Compound 109], under setting [1], the maximum response (Emax) was 475%. Moreover, under setting [2], the concentration at half-maximal activity (AC50) worked out at 14.1 µM.

For the compound `CCn1ncc2c(N3CC[C@@H](Oc4ccccc4)C3)nc(-c3cncc(C(F)(F)F)c3)nc21` [Compound 159], under setting [3], the concentration at half-maximal activity (AC50) was determined as 44.6 µM and the Emax came to 242%. For `CN(CCOc1ccccc1)c1nc(-c2cccnc2)nc2ccc(C(F)(F)F)cc12` [Compound 45], the maximal effect (Emax) under setting [1] came out at 120%. The concentration at half-maximal activity (AC50) under setting [2] is 5 µM. On the same counts, the results for `CN(CCOc1ccccc1)c1nc(-c2cccnc2)nc2cc(F)ccc12` [Compound 39] are 450% and 2.82 µM.

With `CN(CCOc1ccccc1)c1nc(-c2coc3ccccc23)nc2ccccc12` [Compound 49], the Emax under setting [1] turned out to be 120%. Further, the AC50 under setting [2] was 2.42 µM.

Take `CN(CC1CCc2ccccc2O1)c1nc(-c2cccnc2)nc2c1cnn2C` (centres unmarked) [Compound 105]: the maximum response (Emax) under setting [1] was found to be 662%. Besides, under setting [2], the AC50 stood at 6.31 µM. `CN(CCOc1ccccc1)c1nc(-c2cncc(F)c2)nc2ccccc12` [Compound 35]: the Emax under setting [1] came out at 180%. The concentration at half-maximal activity (AC50) under setting [2] stood at 0.51 µM. Consider `CN(CCOc1cccc(CCO)c1)c1nc(-c2cccnc2)nc2ccccc12` [Compound 86], for which, under setting [2], the concentration at half-maximal activity (AC50) was found to be 15.8 µM. In the case of `c1ccc(OC2CCN(c3nc(-c4cccnc4)nc4ccccc34)C2)cc1` (centres unmarked) [Compound 22], under setting [1], the Emax was found to be 300%. Moreover, under setting [2], the half-maximal activity concentration (AC50) was 1.58 µM. On the same counts, the results for `CN(CCOc1ccc2c(c1)CCCC2)c1nc(-c2cccnc2)nc2c1cnn2C` [Compound 103] are 371% and 3.16 µM. On the same counts, the results for `Cc1csc2c(N(C)CCOc3ccccc3)nc(-c3cccnc3)nc12` [Compound 64] are 222% and 2.51 µM.

On to `CN(C[C@H]1COc2ccccc2O1)c1nc(-c2cccnc2)nc2ccccc12` [Compound 9, (S)—N-((2,3-dihydrobenzo[b][1,4]dioxin-2-yl)methyl)-N-methyl-2-(pyridin-3-yl)quinazolin-4-amine], for which, under setting [1], the maximal response (Emax) turned out to be 645%. Moreover, the concentration at half-maximal activity (AC50) under setting [2] is 1.49 µM. On the same counts, the results for `O=C(CCCCCCCN(CCOc1ccccc1)c1nc(-c2cccnc2)nc2ccccc12)ON1C(=O)CCC1=O` [Compound 20] are 500% and 1.26 µM. Take `CCn1ncc2c(N(C)CCOc3ccc(CNC(=O)CCCCCNC(=O)CCOCCOCCOCCOCCNC(=O)OC(C)(C)C)cc3)nc(-c3cccnc3)nc21` [Compound 184]: the concentration at half-maximal activity (AC50) under setting [3] came out at 2.82 µM.

On to `c1ccc(OC2CN(c3nc(-c4cccnc4)nc4ccccc34)C2)cc1` [Compound 165], for which, under setting [3], the AC50 was 3.98 µM and the Emax stood at 305%. Turning to `CN(C[C@H]1COc2ccccc2O1)c1nc(-c2cccnc2)nc2c1cnn2C` [Compound 10], the maximal effect (Emax) under setting [1] came to 573%. Also, the AC50 under setting [2] stood at 1.38 µM.

`COC(=O)c1cccc(OCCN(C)c2nc(-c3cccnc3)nc3ccccc23)c1` [Compound 77]: the Emax under setting [1] worked out at 432%. The concentration at half-maximal activity (AC50) under setting [2] is 5.01 µM. With `Cc1nn(Cc2ccccc2)c(C)c1Nc1nc(-c2cccnc2)nc2ccccc12` [Compound 70], the maximal effect (Emax) under setting [1] is 191%. Besides, under setting [2], the AC50 came out at 8.91 µM. On to `CN(CCOc1ccccc1)c1nc(-c2cccnc2)nc2c1oc1ccccc12` [Compound 153], for which, under setting [3], the concentration at half-maximal activity (AC50) stood at 1.58 µM and the Emax was found to be 178%.
